Assay results reported in doi:10.1101/2025.03.31.646177v2, “Target engagement studies and kinetic live-cell degradation assays enable the systematic characterization of HDAC6 PROTACs” (biorxiv, 2025).

Columns and labels:
[1] = target: T1, HDAC6-HiBiT (endogenously tagged HDAC6 in HeLa HDAC6-HiBiT LgBiT cells) (Homo sapiens, UniProt Q9UBN7); experiment: NanoBRET competition with tracer […]; format: cell-based
T1 sequence (Q9UBN7 1-1215): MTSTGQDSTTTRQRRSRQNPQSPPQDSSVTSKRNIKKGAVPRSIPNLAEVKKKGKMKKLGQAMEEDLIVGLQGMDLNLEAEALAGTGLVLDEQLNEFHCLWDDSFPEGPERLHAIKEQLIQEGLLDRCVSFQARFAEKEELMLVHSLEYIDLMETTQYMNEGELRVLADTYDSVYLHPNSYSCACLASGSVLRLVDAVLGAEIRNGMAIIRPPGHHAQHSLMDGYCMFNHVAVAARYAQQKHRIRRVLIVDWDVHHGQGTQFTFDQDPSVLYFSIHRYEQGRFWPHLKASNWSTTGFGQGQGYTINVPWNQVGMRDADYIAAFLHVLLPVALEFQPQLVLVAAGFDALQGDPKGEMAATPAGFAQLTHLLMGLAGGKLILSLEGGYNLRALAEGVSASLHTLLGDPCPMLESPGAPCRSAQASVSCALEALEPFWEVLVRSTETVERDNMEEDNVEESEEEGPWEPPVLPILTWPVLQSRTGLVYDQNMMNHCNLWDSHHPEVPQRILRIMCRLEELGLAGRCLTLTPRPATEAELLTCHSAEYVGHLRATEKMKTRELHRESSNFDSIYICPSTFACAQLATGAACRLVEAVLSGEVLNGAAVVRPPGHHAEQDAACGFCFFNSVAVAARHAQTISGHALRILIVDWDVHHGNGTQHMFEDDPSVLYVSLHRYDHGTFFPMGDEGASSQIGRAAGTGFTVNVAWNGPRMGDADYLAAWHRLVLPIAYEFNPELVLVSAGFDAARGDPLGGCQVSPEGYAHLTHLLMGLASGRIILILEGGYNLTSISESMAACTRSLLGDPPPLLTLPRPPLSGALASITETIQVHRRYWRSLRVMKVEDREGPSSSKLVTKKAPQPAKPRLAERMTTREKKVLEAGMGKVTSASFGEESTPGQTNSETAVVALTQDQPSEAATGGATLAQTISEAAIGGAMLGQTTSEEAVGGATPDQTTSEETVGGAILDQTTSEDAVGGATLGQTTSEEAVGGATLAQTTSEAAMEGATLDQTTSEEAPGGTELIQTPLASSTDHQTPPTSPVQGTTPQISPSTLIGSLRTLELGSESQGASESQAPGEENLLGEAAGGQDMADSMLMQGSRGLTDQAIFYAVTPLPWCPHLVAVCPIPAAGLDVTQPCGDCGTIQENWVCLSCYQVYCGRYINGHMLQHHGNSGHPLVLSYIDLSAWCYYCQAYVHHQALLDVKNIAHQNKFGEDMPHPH

[2] = target: HDAC2 (human recombinant) (Homo sapiens, UniProt Q92769); experiment: fluorogenic HDAC assay (ZMAL substrate, trypsin-coupled); format: biochemical
Sequence of HDAC2 (human recombinant) (Q92769 whole entry): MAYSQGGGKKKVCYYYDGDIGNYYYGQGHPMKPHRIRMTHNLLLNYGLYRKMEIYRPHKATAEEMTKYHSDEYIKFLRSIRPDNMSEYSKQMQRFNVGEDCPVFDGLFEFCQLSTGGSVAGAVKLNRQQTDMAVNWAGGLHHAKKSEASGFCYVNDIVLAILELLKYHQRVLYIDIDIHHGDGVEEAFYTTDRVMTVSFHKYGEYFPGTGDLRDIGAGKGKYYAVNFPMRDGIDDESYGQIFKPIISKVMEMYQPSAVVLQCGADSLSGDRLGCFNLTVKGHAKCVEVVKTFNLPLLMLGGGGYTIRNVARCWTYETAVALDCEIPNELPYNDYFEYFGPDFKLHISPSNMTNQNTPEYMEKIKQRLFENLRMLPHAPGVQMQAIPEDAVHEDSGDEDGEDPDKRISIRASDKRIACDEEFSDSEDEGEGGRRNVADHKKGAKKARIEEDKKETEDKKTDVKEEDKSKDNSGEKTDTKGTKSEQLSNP
Text: fluorogenic HDAC assay (ZMAL substrate, trypsin-coupled) on HDAC2 (human recombinant)

[3] = target: T2, HDAC6 (human recombinant) (Homo sapiens, UniProt Q9UBN7); experiment: as above; format: biochemical
T2 sequence (Q9UBN7 1-1215): T1 sequence (Q9UBN7 1-1215)
Text: fluorogenic HDAC assay (ZMAL substrate, trypsin-coupled) on HDAC6 (human recombinant)

[4] = target: HDAC1 (human recombinant) (Homo sapiens, UniProt Q13547); experiment: as above; format: biochemical
Sequence of HDAC1 (human recombinant) (Q13547 whole entry): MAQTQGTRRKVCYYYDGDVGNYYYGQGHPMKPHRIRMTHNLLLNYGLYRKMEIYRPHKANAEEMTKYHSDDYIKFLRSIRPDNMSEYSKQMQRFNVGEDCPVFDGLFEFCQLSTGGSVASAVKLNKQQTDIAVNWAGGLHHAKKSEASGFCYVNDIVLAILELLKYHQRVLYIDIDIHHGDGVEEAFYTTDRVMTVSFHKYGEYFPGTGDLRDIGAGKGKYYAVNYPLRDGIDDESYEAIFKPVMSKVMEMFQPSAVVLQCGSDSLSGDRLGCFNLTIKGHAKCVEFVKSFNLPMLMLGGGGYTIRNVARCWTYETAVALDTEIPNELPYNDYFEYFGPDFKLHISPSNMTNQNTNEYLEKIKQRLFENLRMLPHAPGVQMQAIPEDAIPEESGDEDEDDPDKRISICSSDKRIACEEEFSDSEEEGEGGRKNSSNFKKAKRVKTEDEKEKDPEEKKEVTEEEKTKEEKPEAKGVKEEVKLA
Text: fluorogenic HDAC assay (ZMAL substrate, trypsin-coupled) on HDAC1 (human recombinant)

[5] = target: T1, HDAC6-HiBiT (endogenously tagged HDAC6 in HeLa HDAC6-HiBiT LgBiT cells); experiment: NanoBRET saturation binding; format: cell-based

| IC50 [1] [nM] | IC50 [2] [nM] | IC50 [3] [nM] | IC50 [4] [nM] | Kd [5] [nM] | Compound |
| --- | --- | --- | --- | --- | --- |
| 75 ± 30 | – | – | – | – | FC(F)c1nnc(-c2cnc(NCc3ccccc3)nc2)o1 [BK1] |
| – | 340 ± 40 | 18 ± 1 | 200 ± 20 | 120 ± 40 | CN(C)c1ccc2c(-c3ccc(C(=O)NCCOCCOCCOCCn4cc(COc5ccc(C(=O)NCCCCCCC(=O)NO)cc5)nn4)cc3C(=O)[O-])c3ccc(N(C)C)cc3[o+]c2c1 [compound 4, tracer 4] |
| – | 220 ± 10 | 9.1 ± 0.1 | 130 ± 20 | 80 ± 11 | CN(C)c1ccc2c(-c3ccc(C(=O)NCCCn4cc(COc5ccc(C(=O)NCCCCCCC(=O)NO)cc5)nn4)cc3C(=O)[O-])c3ccc(=[N+](C)C)cc-3oc2c1 [compound 5, 2-[6-(Dimethylamino)-3-(dimethyliminio)-3H-xanthen-9-yl]-5-[(3-{4-[(4-{[7-(hydroxyamino)-7-oxoheptyl]carbamoyl}phenoxy)methyl]-1H-1,2,3-triazol-1-yl}propyl)carbamoyl]benzoate] |
